Like-named read-outs stand apart in the source and are kept apart here.
Experiments:
[1] = tested on: parent untransformed BaF3 cells; assay: Tritiated thymidine uptake cell proliferation assay, parental BaF3 (control); format: cell-based; conditions: Mus musculus, 3[H]-thymidine uptake, 72 h, medium with IL-3, read-out: BaF parental IC50
In short: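 Control lines were parental BaF3 in IL-3-supplemented medium and ALK-, Abl- or RET-negative U937, seeded at 10 000 cells/well with serial inhibitor dilutions for 72 h at 37 °C. ³H-thymidine (1 μCi/well) was added for the final 16 h; IC50 (μM) is the concentration halving uptake versus DMSO.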

[2] = biological target: T1, BaF3 cells transformed with the oncogenic fusion protein NPM/ALK (Homo sapiens, UniProt Q9UM73); assay: Tritiated thymidine uptake cell proliferation assay, BaF3 NPM/ALK; format: cell-based; conditions: 3[H]-thymidine uptake, 72 h; read-out: BaF NPM/ALK IC50
T1 construct: fused on or other part: P06748 (Nucleophosmin)
In short: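 Cells were seeded at 10 000/well with serial inhibitor dilutions or DMSO vehicle and incubated 72 h at 37 °C, with ^3[H]-thymidine (1 μCi/well) added for the final 16 h. Incorporation was read by β scintillation counting. IC50 (μM) is the concentration giving a 50% decrease in uptake versus controls.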

[3] = biological target: BaF3 cells transformed with the oncogenic fusion protein bcr-abl (Homo sapiens, UniProt P00519); assay: Tritiated thymidine uptake cell proliferation assay, BaF3 BCR/ABL; format: cell-based; conditions: 3[H]-thymidine uptake, 72 h; read-out: BaF BCR/ABL IC50
Experimental: Inhibition of the Proliferation of Bcr/Abl Positive Cells
(§1) Method: Tritiated Thymidine Uptake Cell Proliferation Assay
(§2) The following procedure was used with parent untransformed BaF3 cells, BaF3 cells transformed with the oncogenic fusion protein bcr-abl, Abl-negative U937 cells, or Bcr-abl positive LAMA-84 cells. The parent untransformed BaF3 cells and Abl-negative U937 cells are used as controls. Cells were seeded in U-bottomed 96-well plates at 10 000 cells/well in a volume of 100 μL in supplemented medium. In the case of the parent untransformed BaF3 cells, the medium was supplemented with IL-3. Serial dilutions of inhibitors were added to the appropriate wells and volumes adjusted to 200 μL. Controls were treated with the equivalent volume of vehicle, DMSO, alone. Plates were incubated at 37° C. for 72 h. ^3[H]-thymidine (1 μCi/well) was added for the last 16 h of incubation. Cells were harvested on to paper filters and ^3[H]-thymidine incorporation was measured using a β scintillation counter (1430 MicroBeta, Wallac, Turku, Finland). The 50% inhibitory concentration (IC50) was defined as the concentration of inhibitor, expressed in micromolar, that gave a 50% decrease in ^3H-thymidine uptake compared with controls.

[4] = biological target: T2, Recombinant ALK kinase (Homo sapiens, UniProt Q9UM73); assay: ALK kinase inhibitory activity, ELISA-based in vitro kinase assay; format: biochemical; conditions: for ALK IC50, 2nd / subsequent determination: 2nd or 'then'
T2 construct: made in house; host or cells: Sf9 insect cells (baculovirus)
In short: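 Sf9-expressed, purified recombinant ALK phosphorylated a plate-coated peptide substrate with 0.3 mM ATP, Mn2+/Mg2+, pH 7.5, 15 min at 30° C, after 10 min inhibitor preincubation. Phosphotyrosine was detected by anti-pTyr ELISA (TMB, A450); IC50 in μM is the concentration giving 50% inhibition relative to control.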

[5] = biological target: T3, Recombinant Abl T315I protein (Homo sapiens, UniProt P00519, T315I); assay: Abl T315I mutant kinase inhibitory activity, ELISA-based in vitro kinase assay; format: biochemical; conditions: purified Abl T315I, 0.3 mM ATP
T3 construct: made in house; host or cells: Sf9 cells (baculovirus)
In short: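 His-tagged human Abl T315I from Sf9 cells, preincubated 10 min at room temperature with inhibitor, then reacted on peptide-coated plates with 0.3 mM ATP, 1 mM MnCl2, 5 mM MgCl2 in 50 mM Tris pH 7.5. Phosphotyrosine detected by anti-pTyr/HRP ELISA at 450 nm; IC50 as 50% inhibition vs control.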

[6] = biological target: T4, Recombinant Ret protein (Homo sapiens, UniProt P07949); assay: RET kinase inhibitory activity, ELISA-based in vitro kinase assay; format: biochemical; conditions: purified Ret, 0.3 mM ATP
T4 construct: made in house; host or cells: Sf9 cells (baculovirus)
Experimental: Recombinant ALK kinase was expressed in Sf9 insect cells using the pBlueBacHis2C baculovirus vector system and purified using an anion exchange Fast Flow Q-sepharose column (Amersham-Pharmacia Biotech) followed by HiTrap™-nickel affinity column (Amersham-Pharmacia Biotech). Purified ALK protein was used to screen inhibitors in the ELISA-based kinase assay. A Nunc Immuno 96 well plate was incubated overnight at 37° C. with coating solution (125 μL/well) containing ALK peptide substrate ([…]) (SEQ ID NO: 1) at various concentrations in PBS. Wells were then washed with 200 μL of wash buffer (PBS-Tween 0.05%) and left to dry for at least 2 h at 37° C. The kinase reaction was performed in the presence of 50 mM Tris pH 7.5, 5 mM MnCl2, 5 mM MgCl2, 0.3 mM ATP and purified rALK in a total volume of 100 μL/well at 30° C. for 15 min. For inhibitor testing the reaction mix was preincubated with the inhibitor or solvent control for 10 min at room temperature before transferring to the ELISA plate. After the reaction wells were washed 5 times with 200 μL of wash buffer. Phosphorylated peptide was detected using 100 μL/well of a mouse monoclonal anti-phosphotyrosine antibody (clone 4G10 Upstate Biotech Ltd) diluted 1:2000 in PBS+4% BSA. After 30 min incubation at room temperature the antibody was removed and wells were washed as described above. 100 μL of a secondary antibody (anti-mouse IgG, Horseradish Peroxidase linked whole antibody, Amersham Pharmacia Biotech) diluted 1:1000 in PBS+4% BSA was added to each well and the plate was incubated again for 30 min at room temperature before washing as above. The plate was developed using 100 μL/well TMB Substrate Solution (Endogen) and the reaction was stopped by adding an equiv.ual volume of H2SO4 0.36 M. Finally, the absorbance was read at 450 nm using an Ultrospec® 300 spectrophotometer (Amersham-Pharmacia Biotech). The concentration of the test solution showing 50% inhibition as compared with the control was expressed as IC50 (μM).
38. RET Kinase Inhibitory Activity
Method: ELISA-Based In Vitro Kinase Assay
Recombinant Ret protein was expressed in Sf9 cells using the pBlueBacHis2C baculovirus expression vector. Ret was purified using an anion exchange Fast Flow Q-sepharose column (Amersham-Pharmacia Biotech) followed by HiTrap™-nickel affinity column (Amersham-Pharmacia Biotech). Purified Ret was used in the ELISA-based kinase assay to screen inhibitors as described above. The kinase reaction was performed in the presence of 50 mM Tris pH 7.5, 1 mM MnCl2, 5 mM MgCl2, 0.3 mM ATP, peptide substrate ([…]) (SEQ ID NO: 1) and purified Ret. The concentration of the test solution showing 50% inhibition as compared with the control was expressed as IC50 (μM).

[7] = tested on: NPM/ALK positive SUDHL-1 cells; assay: Tritiated thymidine uptake cell proliferation assay, SUDHL-1; format: cell-based; conditions: 3[H]-thymidine uptake, 72 h
Experimental: Inhibition of the proliferation of NPM/ALK positive cells
as §1
as §2, with “NPM/ALK, NPM/ALK positive SUDHL-1 cells, ALK-negative” for “bcr-abl, Abl-negative”, “NPM/ALK” for “or Bcr-abl”, “KARPAS-299” for “LAMA-84”, “Alk-negative” for “Abl-negative”, “^3[H]-thymidine” for “^3H-thymidine”

[8] = tested on: ALK-negative U937 cells; assay: Tritiated thymidine uptake cell proliferation assay, U937 (control); format: cell-based; conditions: Homo sapiens, U-937; 3[H]-thymidine uptake, 72 h
Experimental: as §1
The following procedure was used with parent untransformed BaF3 cells, BaF3 cells transformed with the oncogenic fusion protein NPM/ALK, NPM/ALK positive SUDHL-1 cells, ALK-negative U937 cells, NPM/ALK positive KARPAS-299 cells. The parent untransformed BaF3 cells and Alk-negative U937 cells are used as controls. Cells were seeded in U-bottomed 96-well plates at 10 000 cells/well in a volume of 100 μL in supplemented medium. In the case of the parent untransformed BaF3 cells, the medium was supplemented with IL-3. Serial dilutions of inhibitors were added to the appropriate wells and volumes adjusted to 200 μL. Controls were treated with the equivalent volume of vehicle, DMSO, alone. Plates were incubated at 37° C. for 72 h. ^3[H]-thymidine (1 μCi/well) was added for the last 16 h of incubation. Cells were harvested on to paper filters and ^3[H]-thymidine incorporation was measured using a β scintillation counter (1430 MicroBeta, Wallac, Turku, Finland). The 50% inhibitory concentration (IC50) was defined as the concentration of inhibitor, expressed in micromolar, that gave a 50% decrease in ^3[H]-thymidine uptake compared with controls. […]
as §2, with “RET-PTC2,” for “bcr-abl, Abl-negative U937 cells,”, “RET-negative 11937” for “Bcr-abl positive LAMA-84”, “RET-negative” for “Abl-negative”, “^3[H]-thymidine” for “^3H-thymidine”

[9] = purified rALK, 0.3 mM ATP, read-out: ALK IC50
[10] = repeated determinations, 1st, read-out: ALK IC50, 1st determination

T1 sequence (Q9UM73 whole entry, change not shown, the tested form may be a part): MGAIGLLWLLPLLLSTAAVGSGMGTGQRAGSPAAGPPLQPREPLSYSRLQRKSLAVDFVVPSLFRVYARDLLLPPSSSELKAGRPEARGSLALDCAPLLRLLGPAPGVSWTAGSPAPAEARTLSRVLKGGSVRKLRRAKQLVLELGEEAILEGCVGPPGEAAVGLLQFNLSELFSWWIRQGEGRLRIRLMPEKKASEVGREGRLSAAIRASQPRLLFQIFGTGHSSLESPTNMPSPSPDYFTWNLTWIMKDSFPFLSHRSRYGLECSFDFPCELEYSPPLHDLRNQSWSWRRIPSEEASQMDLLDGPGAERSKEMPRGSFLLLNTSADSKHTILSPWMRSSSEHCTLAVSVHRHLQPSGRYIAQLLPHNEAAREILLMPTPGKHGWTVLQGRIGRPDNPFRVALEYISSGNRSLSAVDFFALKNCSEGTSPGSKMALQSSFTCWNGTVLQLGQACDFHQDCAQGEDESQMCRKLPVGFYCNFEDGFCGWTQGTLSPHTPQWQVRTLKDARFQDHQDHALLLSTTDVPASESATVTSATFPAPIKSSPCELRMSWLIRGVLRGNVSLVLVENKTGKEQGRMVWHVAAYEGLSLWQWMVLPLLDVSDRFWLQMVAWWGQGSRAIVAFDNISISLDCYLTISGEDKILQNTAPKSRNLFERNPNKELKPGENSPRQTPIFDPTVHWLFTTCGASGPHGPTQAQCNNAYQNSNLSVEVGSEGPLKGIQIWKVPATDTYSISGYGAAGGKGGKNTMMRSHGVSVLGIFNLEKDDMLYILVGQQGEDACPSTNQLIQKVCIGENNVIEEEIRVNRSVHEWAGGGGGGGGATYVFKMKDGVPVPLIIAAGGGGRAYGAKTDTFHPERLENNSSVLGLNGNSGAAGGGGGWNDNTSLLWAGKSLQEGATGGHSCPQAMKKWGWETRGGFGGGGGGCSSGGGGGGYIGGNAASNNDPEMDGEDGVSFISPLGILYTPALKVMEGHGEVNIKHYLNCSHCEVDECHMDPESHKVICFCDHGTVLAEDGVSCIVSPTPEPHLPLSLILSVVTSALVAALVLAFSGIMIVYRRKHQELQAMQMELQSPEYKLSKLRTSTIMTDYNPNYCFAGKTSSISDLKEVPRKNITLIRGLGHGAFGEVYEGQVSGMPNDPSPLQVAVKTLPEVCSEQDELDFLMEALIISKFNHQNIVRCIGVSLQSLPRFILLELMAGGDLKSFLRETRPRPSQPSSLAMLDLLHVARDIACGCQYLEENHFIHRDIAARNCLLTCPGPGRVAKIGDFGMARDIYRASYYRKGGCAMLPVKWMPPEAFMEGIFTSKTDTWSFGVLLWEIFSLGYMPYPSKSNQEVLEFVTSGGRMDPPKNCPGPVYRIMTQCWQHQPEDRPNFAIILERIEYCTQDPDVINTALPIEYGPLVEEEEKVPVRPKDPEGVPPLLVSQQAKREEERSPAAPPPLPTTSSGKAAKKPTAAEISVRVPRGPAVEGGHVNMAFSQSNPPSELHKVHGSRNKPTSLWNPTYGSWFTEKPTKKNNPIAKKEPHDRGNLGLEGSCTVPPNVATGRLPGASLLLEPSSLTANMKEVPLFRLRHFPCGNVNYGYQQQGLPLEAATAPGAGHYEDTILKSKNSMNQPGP
T4 sequence (P07949 29-1114): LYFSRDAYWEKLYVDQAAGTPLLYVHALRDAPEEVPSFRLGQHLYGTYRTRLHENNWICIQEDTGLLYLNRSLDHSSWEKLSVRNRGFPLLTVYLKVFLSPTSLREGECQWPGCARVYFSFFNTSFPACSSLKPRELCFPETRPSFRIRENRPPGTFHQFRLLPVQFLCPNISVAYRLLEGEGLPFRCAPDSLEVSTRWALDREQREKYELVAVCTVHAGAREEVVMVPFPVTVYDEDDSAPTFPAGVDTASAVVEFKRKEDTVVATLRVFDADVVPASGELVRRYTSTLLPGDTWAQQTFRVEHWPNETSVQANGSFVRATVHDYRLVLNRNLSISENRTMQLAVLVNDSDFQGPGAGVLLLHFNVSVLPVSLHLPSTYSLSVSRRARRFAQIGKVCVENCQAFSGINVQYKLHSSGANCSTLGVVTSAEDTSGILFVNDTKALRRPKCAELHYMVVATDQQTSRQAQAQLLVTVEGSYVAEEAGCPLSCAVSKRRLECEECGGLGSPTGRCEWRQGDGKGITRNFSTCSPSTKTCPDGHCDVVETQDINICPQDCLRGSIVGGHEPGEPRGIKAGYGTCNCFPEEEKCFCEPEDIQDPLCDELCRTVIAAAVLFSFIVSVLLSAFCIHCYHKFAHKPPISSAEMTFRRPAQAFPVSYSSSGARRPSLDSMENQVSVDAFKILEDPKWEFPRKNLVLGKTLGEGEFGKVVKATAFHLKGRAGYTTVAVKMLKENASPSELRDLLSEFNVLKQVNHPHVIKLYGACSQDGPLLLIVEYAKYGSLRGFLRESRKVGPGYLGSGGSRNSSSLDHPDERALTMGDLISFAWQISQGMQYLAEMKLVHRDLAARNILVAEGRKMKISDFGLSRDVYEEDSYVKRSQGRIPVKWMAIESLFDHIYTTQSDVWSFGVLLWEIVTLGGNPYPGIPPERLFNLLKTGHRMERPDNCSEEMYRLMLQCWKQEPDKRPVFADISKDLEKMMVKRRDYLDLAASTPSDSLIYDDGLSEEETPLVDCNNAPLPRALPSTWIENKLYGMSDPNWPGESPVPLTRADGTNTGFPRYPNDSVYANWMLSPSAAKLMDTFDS
T2 sequence (Q9UM73 19-1620): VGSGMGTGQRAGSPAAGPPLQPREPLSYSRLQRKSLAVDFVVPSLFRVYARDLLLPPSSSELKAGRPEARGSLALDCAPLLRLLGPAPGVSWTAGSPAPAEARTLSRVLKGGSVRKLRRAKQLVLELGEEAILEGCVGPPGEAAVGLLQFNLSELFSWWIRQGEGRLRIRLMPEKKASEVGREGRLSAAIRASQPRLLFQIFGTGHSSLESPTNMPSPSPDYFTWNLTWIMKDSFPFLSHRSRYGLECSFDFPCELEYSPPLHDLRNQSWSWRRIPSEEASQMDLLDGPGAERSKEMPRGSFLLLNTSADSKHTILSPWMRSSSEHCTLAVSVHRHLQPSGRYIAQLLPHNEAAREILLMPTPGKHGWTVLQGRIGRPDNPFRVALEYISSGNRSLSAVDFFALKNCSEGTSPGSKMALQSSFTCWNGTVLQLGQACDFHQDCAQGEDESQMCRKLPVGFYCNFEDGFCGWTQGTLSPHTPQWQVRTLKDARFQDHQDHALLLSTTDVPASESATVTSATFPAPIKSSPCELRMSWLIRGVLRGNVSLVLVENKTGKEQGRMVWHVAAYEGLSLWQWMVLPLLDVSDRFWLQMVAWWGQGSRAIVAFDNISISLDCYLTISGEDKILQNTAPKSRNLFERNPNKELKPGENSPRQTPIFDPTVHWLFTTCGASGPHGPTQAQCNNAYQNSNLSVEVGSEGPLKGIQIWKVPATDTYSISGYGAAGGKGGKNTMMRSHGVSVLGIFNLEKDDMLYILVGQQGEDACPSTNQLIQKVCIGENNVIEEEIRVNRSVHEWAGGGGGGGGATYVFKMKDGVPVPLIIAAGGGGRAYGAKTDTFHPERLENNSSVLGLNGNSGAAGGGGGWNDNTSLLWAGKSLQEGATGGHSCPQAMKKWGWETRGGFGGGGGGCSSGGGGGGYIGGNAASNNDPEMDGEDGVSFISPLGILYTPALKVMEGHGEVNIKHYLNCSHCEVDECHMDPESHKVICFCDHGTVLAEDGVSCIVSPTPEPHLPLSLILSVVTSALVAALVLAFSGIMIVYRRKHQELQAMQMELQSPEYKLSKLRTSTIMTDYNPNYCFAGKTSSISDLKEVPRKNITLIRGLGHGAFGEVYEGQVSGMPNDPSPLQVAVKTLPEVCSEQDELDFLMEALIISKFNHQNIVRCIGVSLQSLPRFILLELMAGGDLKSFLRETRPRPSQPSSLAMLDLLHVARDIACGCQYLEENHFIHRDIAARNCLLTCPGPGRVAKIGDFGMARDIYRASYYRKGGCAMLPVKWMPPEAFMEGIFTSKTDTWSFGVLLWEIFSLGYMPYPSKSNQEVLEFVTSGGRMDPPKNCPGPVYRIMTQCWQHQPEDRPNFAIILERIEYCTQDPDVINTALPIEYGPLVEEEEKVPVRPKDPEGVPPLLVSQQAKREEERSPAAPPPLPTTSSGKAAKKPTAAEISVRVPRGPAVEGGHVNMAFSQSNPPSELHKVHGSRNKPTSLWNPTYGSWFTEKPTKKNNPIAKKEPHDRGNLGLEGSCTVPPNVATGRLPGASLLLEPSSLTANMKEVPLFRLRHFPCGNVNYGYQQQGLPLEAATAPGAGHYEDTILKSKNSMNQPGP

| Compound | GI50 [2] | GI50 [3] | IC50 [4, 9] | IC50 [5] | IC50 [6] | IC50 [7] | IC50 [8] | IC50 [4, 10] | ALK IC50, 2nd / subsequent determination ([4]; repeated determinations) | IC50 [1] |
| --- | --- | --- | --- | --- | --- | --- | --- | --- | --- | --- |
| CC(=O)c1ccc2[nH]c3ncc(Cl)cc3c2c1 [R253, 6-acetyl-3-chloro-9H-pyrido[2,3-b]indole] | > 20 µM | > 20 µM |  |  |  |  |  |  |  | > 20 µM |
| CN(C)CCSCC(=O)c1ccc2[nH]c3ncccc3c2c1 [R263] | > 25 µM | > 25 µM | > 100 µM | > 100 µM | > 100 µM | 13 µM |  |  |  | > 25 µM |
| O=C(CSc1ccccn1)c1ccc2[nH]c3ncccc3c2c1 [R264] | 13 µM | 23 µM | 13 ± 0.58 µM | 49 ± 1.1 µM | 24 ± 6.1 µM | 24 µM |  |  |  | 19 µM |
| O=C(NCCc1ccc2[nH]c3ncc(Cl)cc3c2c1)c1ccccc1 [R265, N-(2-(3-chloro-9H-pyrido[2,3-b]indol-6-yl)ethyl)benzamide] | > 25 µM | > 25 µM | 40 ± 1.9 µM | 54 ± 43 µM | 26 ± 4.7 µM | > 25 µM |  |  |  | > 25 µM |
| O=[N+]([O-])/C=C/c1ccc2[nH]c3ncc(Cl)cc3c2c1 [R266, 3-chloro-6-(2′-nitrovinyl)-9H-pyrido[2,3-b]indole] | 3.4 µM | 2 µM | 3.3 ± 0.4 µM | 9.8 ± 0.67 µM | 4.6 ± 0.39 µM | 0.81 µM |  |  |  | 3.4 µM |

The next lines start with results.

| GI50 [2] | GI50 [3] | IC50 [4, 9] | IC50 [5] | IC50 [6] | IC50 [7] | IC50 [8] | IC50 [4, 10] | ALK IC50, 2nd / subsequent determination ([4]; repeated determinations) | Compound | IC50 [1] |
| --- | --- | --- | --- | --- | --- | --- | --- | --- | --- | --- |
| > 25 µM | > 25 µM |  | 3.6 ± 0.19 µM | 3.3 ± 1.5 µM | 0.6 µM |  |  |  | COc1ccc(-c2ccc3[nH]c4ncccc4c3c2)cc1 [R268] | > 25 µM |
| 3.9 ± 1.1 µM |  | 1.1 ± 0.3 µM | 6.5 µM |  | 2 µM | 21 µM |  |  | COc1ccc(-c2ccc3[nH]c4ncc(/C=C/c5ccccc5)cc4c3c2)cc1 [R315, 6-(4-methoxyphenyl)-3-(2′-phenylethenyl)-9H-pyrido[2,3-b]indole] | 25 ± 10 µM |
| > 100 µM |  |  |  |  | 7.6 µM | 23 µM | 66 µM | inactive | Clc1cnc2[nH]c3ccc(CCc4ccccc4)cc3c2c1 [R351, 3-chloro-6-(2′-phenylethyl)-9H-pyrido[2,3-b]indole] | > 100 µM |
| 5.2 µM |  |  |  |  | 8.6 µM | 13 µM | 19 µM | inactive | COc1cccc(Nc2cnc3[nH]c4ccc(CCc5ccccc5)cc4c3c2)c1 [R352, N-(3-methoxyphenyl)-6-(2′-phenylethyl)-9H-pyrido[2,3-b]indol-3-amine] | 5.3 µM |
| 22 µM |  | 13 µM |  |  | 25 µM | 27 µM |  |  | c1ccc(CCc2ccc3[nH]c4ncc(-c5ccc6c(c5)OCO6)cc4c3c2)cc1 [R354, 3-(benzo[d][1,3]dioxol-5-yl)-6-(2′-phenylethyl)-9H-pyrido[2,3-b]indole] | 27 µM |

From patent US8895744B2, “Alfa-carboline inhibitors of NPM-ALK, RET, and Bcr-Abl” (Universita' Degli Studi di Milano-Bicocca, priority 2008, dated 2014)
